From US9562914B2, “Microfluidic device for real-time clinical monitoring and quantitative assessment of whole blood coagulation” (President and Fellows of Harvard College, priority 2013, dated 2017)

Tested on: whole human blood
Assay: whole blood clotting time in microfluidic coagulation device (infusion or pressure pump mode)
Format: cell-based
Settings: microchannels coated with human collagen I at 100 μg/ml; device of FIG. 13A; uncoated PDMS 15-60 minutes
Description: As discussed below, in the test configuration, 2-5 ml of human whole blood was pumped through an infusion or pressure pump followed by an inline pressure sensor that connected to ports 120a, 120b of the microfluidic device 100 via appropriate medical grade tubing (e.g., 1.6 mm ID). In infusion mode, clot formation leads to an increase in pressure, whereas in constant pressure mode, the flow rate drops with respect to time. […] The characteristic constants of these models indicate clotting times at two stages—when the clot formation is accelerating and when the clot has completely occluded the channel. […] Fluorescence microscopy of fibrinogen and platelets allow real-time monitoring of fibrin formation and platelet aggregation simultaneously.
In the testing conducted with the microfluidic device 100 of FIG. 1, fresh human blood stored in a 5 ml syringe (slip-tip Plastipak, BD, Franklin Lakes, N.J.) was pushed via syringe pump (PHD Ultra CP, Harvard Apparatus, Holliston, Mass.) through an inline, disposable pressure sensor (PREPS-N-000, PendoTECH, Princeton, N.J.) followed by the PDMS device within 15 minutes of blood draw. […] In the test setup, the imaging device 130 used was a fluorescence imaging configured Carl Zeiss Axio 3 Observer microscope (10×, NA 0.3 objective), but other imaging devices may be readily used in accord with the present concepts. […]

“human collagen I: human collagen I coated on the microchannels at a concentration of 100 μg/ml” was tested, and the “clotting time with collagen-coated microchannels” value was 2 to 20 min.
